Values after ≈ are worked out from the molar mass of the structure shown. Like-named read-outs stand apart in the source and are kept apart here.
Columns and labels:
[1] = test system: N. gonorrhoeae ATCC 49226; assay: MIC on GC agar plates; assay type: cell-based, Neisseria gonorrhoeae
Procedure: An initial screening for bacterial inhibition was performed by the agar diffusion method. […] DMSO and TSB were included as negative controls. Gentamicin and trimethoprim sulfamethoxazole were included as a positive control for growth inhibition. Derivatives showing growth inhibition were tested at least twice before being selected for the microdilution test. For N. gonorrhoeae, the agar diffusion method was also used for screening with some modifications. […] Penicillin and tetracycline were used as controls. […] Briefly, GC agar supplemented with 1% isovitalex was prepared with increasing concentrations of the new compounds and inoculated with 10 µL of a bacterial suspension (1 × 10^4 CFU). The lowest concentration of the compound that inhibited bacterial growth was determined as the MIC. Bacterial growth was examined and verified using the oxidase test. The experiments were performed in duplicate in at least two independent assays.

A. niger (ATCC 9029) = assay: Antifungal broth microdilution (CLSI); assay type: cell-based; settings: ATCC9029; Ani: Aspergillus niger
Procedure, shortened: (§1)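 Broth microdilution followed CLSI M27-A3 for yeasts and the filamentous-fungi reference method, in 200 μL final volume with DMSO-matched growth controls. Plates were incubated in the dark and humid at 30 °C for a time suited to each fungus; testing was done in triplicate.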

[2] = test system: Candida albicans (ATCC 10231); assay: Antifungal broth microdilution (CLSI); assay type: cell-based; settings: ATCC10231; Ca: Candida albicans
Procedure, shortened: as §1

CCRF-CEM = settings: 48 h
K-562 = settings: K-562, 48 h
SR = settings: 48 h
MOLT-4 = settings: MOLT-4, 48 h
SF-539 = settings: human, 48 h
LOX IMVI = settings: 48 h; for GI50: LOX IMVI
S. aureus ATCC 43300 = assay: Antibacterial MIC, microdilution; assay type: cell-based; settings: Staphylococcus aureus; S. aureus ATCC 43300 (MRSA)
Galleria mellonella = assay: Toxicity in the Galleria mellonella model; settings: G. mellonella larvae, at the higher doses
Procedure: G mellonella larvae were cultivated in the laboratory and healthy, beige larvae weighing 150–200 mg, were selected for toxicity assays.

U251 = settings: U251, 48 h
[3] = test system: human red blood cells (huRBC); assay: Hemolytic activity, spectrophotometric; assay type: cell-based; settings: 200 μg/mL, 24 h, 37 °C
[4] = Neisseria gonorrhoeae, ATCC49226, read-out: MIC

| Structure (SMILES) | MIC [1, 4] | MIC (A. niger (ATCC 9029)) | MIC [2] | other results |
| --- | --- | --- | --- | --- |
| COc1cc(C2CC(c3ccc(Cl)cc3)=Nc3c(N)nc(N)nc3N2)ccc1Oc1nc(Nc2ccc(F)cc2)nc(N(C)C)n1 (stereo not shown) [29e] | ≥ 500 µg/mL | > 250 µg/mL | > 250 µg/mL |  |
| COc1ccc(/C=C/C(=O)c2ccc(S(=O)(=O)NCCNc3nc(Nc4ccc(F)cc4)nc(N(C)C)n3)cc2)cc1 [24c] |  | > 250 µg/mL | > 250 µg/mL |  |
| CN(C)c1nc(NCCNS(=O)(=O)c2ccc(C3=Nc4c(N)nc(N)nc4NC(c4ccc(F)cc4)C3)cc2)nc(Nc2ccc(F)cc2)n1 (stereo not shown) [31f] | 0.25 µg/mL (≈ 0.356 µM) |  |  | MIC [1]: 0.25 µg/mL (≈ 0.356 µM) |
| Nc1nc(N)c2c(n1)NC(c1ccc(F)cc1)CC(c1ccc(Nc3nc(NCCO)nc(Nc4ccc(Cl)cc4)n3)cc1)=N2 (stereo not shown) [33f] | 1 µg/mL (≈ 1.59 µM) |  |  | GI50 (CCRF-CEM): 0.75 µM; GI50 (K-562): 0.49 µM; GI50 (SR): 0.67 µM; GI50 (MOLT-4): 0.53 µM |
| COc1cc(/C=C/C(=O)c2ccc(S(=O)(=O)NCCNc3nc(Nc4ccc(F)cc4)nc(N(C)C)n3)cc2)cc(OC)c1OC [24d] |  |  |  | CC50 (SF-539): 5.62 µM; CC50 (LOX IMVI; human): 5.93 µM |
| Nc1nc(N)c2c(n1)NC(c1ccc(C(F)(F)F)cc1)CC(c1ccc(Nc3nc(NCCO)nc(Nc4ccc(Cl)cc4)n3)cc1)=N2 (stereo not shown) [33g] |  |  |  | GI50 (K-562): 0.64 µM; GI50 (MOLT-4): 0.89 µM; MIC (S. aureus ATCC 43300): 31.2 µg/mL (≈ 46.2 µM) |
| COc1cc(/C=C/C(=O)c2cc(OC)c(OC)c(OC)c2)ccc1Oc1nc(NCCO)nc(N2CCOCC2)n1 [20d] |  |  |  | GI50 (SR): 0.78 µM; GI50 (LOX IMVI): 0.64 µM |
| COc1cc(/C=C/C(=O)c2cc(OC)c(OC)c(OC)c2)ccc1Oc1nc(Nc2ccc(F)cc2)nc(N(C)C)n1 [21d] |  | 125 µg/mL (≈ 217 µM) | > 250 µg/mL | mortality (Galleria mellonella): ≤ 25%; GI50 (MOLT-4): 0.47 µM; GI50 (LOX IMVI): 0.48 µM; GI50 (U251): 0.5 µM |
| CN(C)c1nc(NCCNS(=O)(=O)c2ccc(C3=Nc4c(N)nc(N)nc4NC(c4ccc(Cl)cc4)C3)cc2)nc(Nc2ccc(F)cc2)n1 (stereo not shown) [31e] | 0.5 µg/mL (≈ 0.696 µM) |  |  |  |
| COc1cc(/C=C/C(=O)c2ccc(S(=O)(=O)NCCNc3nc(N(C)C)nc(N4CCOCC4)n3)cc2)cc(OC)c1OC [23d] | > 500 µg/mL |  |  |  |
| COc1cc(/C=C/C(=O)c2ccccc2)ccc1Oc1nc(Nc2ccc(F)cc2)nc(N(C)C)n1 [21a] |  |  |  | mortality (Galleria mellonella): ≤ 25% |
| CN(C)c1nc(NCCNS(=O)(=O)c2ccc(C3=Nc4c(N)nc(N)nc4NC(c4ccc(C(F)(F)F)cc4)C3)cc2)nc(Nc2ccc(F)cc2)n1 (stereo not shown) [31g] |  | > 250 µg/mL | > 250 µg/mL |  |
| Nc1nc(N)c2c(n1)NC(c1ccccc1)CC(c1ccc(Nc3nc(NCCO)nc(Nc4ccc(Cl)cc4)n3)cc1)=N2 (stereo not shown) [33a] | 1 µg/mL (≈ 1.64 µM) |  |  |  |
| CN(C)c1nc(NCCNS(=O)(=O)c2ccc(C3=Nc4c(N)nc(N)nc4NC(c4ccccc4)C3)cc2)nc(Nc2ccc(F)cc2)n1 (stereo not shown) [31a] | 8 µg/mL (≈ 11.7 µM) |  |  |  |
| Cc1ccc(C2CC(c3ccc(Nc4nc(NCCO)nc(Nc5ccc(Cl)cc5)n4)cc3)=Nc3c(N)nc(N)nc3N2)cc1 (stereo not shown) [33b] | 0.5 µg/mL (≈ 0.802 µM) |  |  | % Hemolysis [3]: 100% |
| CN(C)c1nc(NCCNS(=O)(=O)c2ccc(C(=O)/C=C/c3ccc(Cl)cc3)cc2)nc(N2CCOCC2)n1 [23e] |  | > 250 µg/mL | 250 µg/mL (≈ 437 µM) |  |
| CN(C)c1nc(NCCNS(=O)(=O)c2ccc(C(=O)/C=C/c3ccc(Cl)cc3)cc2)nc(Nc2ccc(F)cc2)n1 [24e] | 500 µg/mL (≈ 839 µM) | > 250 µg/mL | > 250 µg/mL |  |
| Cc1ccc(C2CC(c3ccc(S(=O)(=O)NCCNc4nc(Nc5ccc(F)cc5)nc(N(C)C)n4)cc3)=Nc3c(N)nc(N)nc3N2)cc1 (stereo not shown) [31b] | 8 µg/mL (≈ 11.5 µM) |  |  |  |
| CN(C)c1nc(NCCNS(=O)(=O)c2ccc(C3=Nc4c(N)nc(N)nc4NC(c4ccc(C(F)(F)F)cc4)C3)cc2)nc(N2CCOCC2)n1 (stereo not shown) [30g] |  | > 250 µg/mL | 125 µg/mL (≈ 172 µM) | mortality (Galleria mellonella): ≤ 25% |
